Measured values published in patent US12390423B2 (priority 2019, dated 2025).
“Also recorded” adds a separate entry of the source.

Tests used:
[1] = Treatment model of diet-induced obesity (DIO) in mice: body and fat pad weights; format: in vivo, C57BL/6J mice; conditions: HFD mice, AvoB 100 mg/kg b.w. oral gavage twice weekly for 5 weeks, vs HFD-control
Description: For the treatment study, twelve-week-old male C57BL/6J mice were purchased from Jackson Laboratory (Bar Harbor, ME) and allowed to acclimatize for 1 week. After acclimatization, mice received either a high-fat diet (HFD) (60% kcal from lard; Research Diet D12492; Research Diets, USA) or a standard diet (10-13% kcal from fat; Teklad 2014; Envigo, USA) for eight weeks. […] Animal weights were monitored twice weekly. At study completion, animals were euthanized (10-12 h into their dark cycle) via CO2 followed by exsanguination, after which tissue and blood was collected.

INS-1 (832/13) cells [2] = assay: Cell viability (propidium iodide, flow cytometry) in INS-1 (832/13) cells; format: cell-based; conditions: AvoB 24 h
Description: Quantitative analysis of cell death was evaluated by flow cytometry using propidium iodide staining (Biovision, Mountainview, CA), where specified, according to the manufacturer's protocol and as previously described^28. Viable cells were identified as PI negative (PI−).

[3] = Avocatin B oral consumption pilot clinical study (Phase I, NCT03898505)
Description: A single center, double-blind, placebo-controlled, randomized, pilot clinical study was executed to determine the safety of consuming 50 mg (equivalent to consuming a quarter Hass avocado pulp) or 200 mg (equivalent to consuming one Hass avocado pulp) AvoB per day for 60 days in healthy human participants (NCT03898505).
The investigational product was approved by Health Canada (natural product number (NPN) 80074296). To create the product, freeze-dried avocado pulp powder was sourced from Avocado Oil New Zealand Ltd., (Tauranga, New Zealand) and tested for absolute quantities of AvoB per gram of powder using a validated analytical method^61. Clinical trial material was then standardized to contain low dose (50 mg) or high dose (200 mg) AvoB (FIG. 9). The placebo product was formulated similarly to the investigational product except it only contained the non-medicinal food-grade ingredients used in the test product and other excipients that were used to simulate appearance, smell, texture and taste of the investigational product. Participants in every group consumed 40 g of material per day for 60 days by dissolving/blending the product in 12-16 ounces of a smoothie like diluent (e.g., milk (with or without lactose), soy milk, coconut milk, or fruit juice of the participant's choice). All three products were approximately matched for total calories per serving.
Healthy volunteers (13 males and 17 females; age range 20-54 years, BMI range 19.1-29.9) were enrolled in the study. Exclusion criteria were: presence of active clinical disease and history of diabetes, hypertension, dyslipidemia, major depressive disorders, chronic liver disorders, kidney disorders, or blood disorders. […] Primary outcome was the analysis of adverse experiences (AEs) measured throughout the study. Secondary outcomes were to ascertain safety and tolerability which were assessed through clinically relevant changes in standard laboratory evaluations (blood chemistry and hematology) measured on days 0, 30 and 60. Body mass index (BMI) and glycated hemoglobin (HbA1c) were also measured as part of secondary outcomes. […]
Mean change from baseline at day 30 and 60 for all laboratory evaluations and body weight were analysed by the non-parametric Kruskal-Wallis—One-Way Analysis of Variance on Ranks. using GraphPad Prism 6.0 (GraphPad Software, USA) where differences with p<0.05 were considered to be statistically significant. AEs were tabulated (for all randomized patients who received at least one dose of study supplements) and analyzed using Fisher's exact test of independence in Statistical Analysis System (SAS) university edition where differences with p<0.05 were considered to be statistically significant.

INS-1 (832/13) cells [4] = assay: Mitochondrial ROS (MitoSOX) and membrane potential (JC-1) in INS-1 (832/13) cells; format: cell-based, rat; conditions: 25 μM AvoB, 0.5 mM palmitate, 24 h
Description: For all ROS studies, INS-1 (832/13) cells and C2C12 myotubes were treated with or without palmitate and FAO inhibitors for 24 h in low glucose cell culture media as described for the FAO assay. After treatment, cells were trypsinized and re-suspended in PBS containing 5 μM of the fluorescent dye MitoSOX® (Molecular Probes, Invitrogen) and allowed to incubate for 5-15 minutes in a humidified atmosphere containing 5% CO2 at 37° C. Cells were then washed in PBS, placed in a 96 well plate and fluorescence was measured by flow cytometry. ROS was quantified by normalizing the mean fluorescence values of live gated cells to vehicle control. Mitochondrial membrane potential (MMP) in INS-1 (832/13) and C2C12 myotubes was measured using the cationic fluorescent dye JC-1 (Molecular Probes). […] JC-1 fluoresces green in the cytosol where it exists as a monomer, after entering the mitochondria JC-1 monomers form J aggregates and fluoresce red, thus the red/green fluorescence ratio is used to determine MMP. […] Cells were then washed in PBS, placed in a 96 well plate and fluorescence was measured by flow cytometry. MMP was quantified by normalizing the mean fluorescence values of live gated cells to vehicle control. […] Cells were treated, washed and collected as described and incubated with 0.35 μM NAO and green fluorescence was measured using flow cytometry. […]

INS-1 (832/13) cells [5] = assay: Cellular ATP content in INS-1 (832/13) cells; format: cell-based, rat; conditions: 25 μM AvoB, palmitate challenged, 24 h
Description: Total cellular ATP content was determined using the ATP bioluminescent assay kit (Calbiochem, 119107). Briefly, cells were seeded in white walled 96-well plates (1.2×10^4 cells/well for INS-1 and 2×10^4 cells/well for C2C12) and treated for 24 h (C2C12 cells were differentiated for 5 days prior to treatments whereas INS-1 cells were treated 24 h after seeding). After treatment, culture media was removed, and cells were lysed with nucleotide releasing buffer with gentle shaking for 5 min. ATP monitoring enzyme was then added to cell lysates and plates and luminescence was read in a Biotek Synergy HT spectrophotometer (Biotek; Winooski, VT).

Substance: avocatin B [AvoB]
- Gonadal and mesenteric fat pad (GFP and MFP) weights [1]: reductions in both gonadal and mesenteric fat pad (GFP and MFP) weights
- Mouse weight at study completion [1]: weighed significantly less than HFD-control mice
- Cell viability (INS-1 (832/13) cells [2]): no effect on cell viability
- Body weight change between baseline and day 30 ([3]; both AvoB supplemented groups relative to placebo, trend, not statistically significant (p=0.10)): decreases in body weight
- Change from baseline in body mass index or glycated hemoglobin (HbA1c) ([3]; either AvoB treated group compared to placebo): No clinically relevant changes from baseline
- Overall tolerability / toxicity (adverse events) ([3]; healthy human participants, 50 or 200 mg AvoB/day for 60 days): generally well-tolerated; also recorded: exerted no toxicity
- Mitochondrial membrane potential (MMP, JC-1) (INS-1 (832/13) cells [4]): lowers palmitate-induced increases
- Mitochondrial superoxide levels (MitoSOX Red) (INS-1 (832/13) cells [4]): lowers palmitate-induced increases in mitochondrial superoxide levels
- Total cellular ATP content (INS-1 (832/13) cells [5]): restores total cellular ATP content
